Measurements from US11007206B2, “Cyclic boronic acid ester derivatives and therapeutic uses thereof” (Melinta Subsidiary Corp., priority 2012, dated 2021).
Values after ≈ are worked out from the molar mass of the structure shown. Read-outs that look alike come from different tables or passages of the source.

Assays:
K. pneumoniae strains = assay: Biapenem MICs of the K. pneumoniae strains used in the infection models (Example 6); type: cell-based; details: Klebsiella pneumoniae
P. aeruginosa = assay: Potency of Biapenem with or without Compound I against P. aeruginosa (Example 4); type: cell-based; details: Biapenem compared with meropenem
[1] = Plasma pharmacokinetics of Compound I and Biapenem alone or in combination after 1.5 hour intravenous infusion in Sprague-Dawley rats (Example 3); type: in vivo; details: for AUC / clearance / half-life: male, Sprague-Dawley, plasma, iv, 20 mg/kg, 1.5 hour intravenous infusion; for AUC / clearance / half-life / Biapenem Calc. Conc. in plasma: rat; for Biapenem Calc. Conc. in plasma: IV infusion
Protocol: Example 3 provides a summary of the pharmacokinetic studies of Compound I alone or in combination with Biapenem following a single intravenous infusion dose in Sprague-Dawley rats. The pharmacokinetics of 20 mg/kg of Compound I, 20 mg/kg of Biapenem, and 20 mg/kg of Compound I in combination with 20 mg/kg of Biapenem after a 1.5 hour intravenous infusion were discussed.
Biapenem power was purchased from Hisun Pharmaceuticals. Compound I was prepared using the method described in the U.S. Publication 2012/0040932 A1. 20 mg of biapenem was dissolved in 0.1 M NaH2PO4 for a basic stock solution. 100 mg of Compound I was dissolved in 30% 1N NaOH to ˜pH 5.0. For animal studies, these stock solutions were further diluted in 0.9% saline to the appropriate concentration.
The specifications for animals used on this study were as follows: • Species: Rat • Strain: Sprague-Dawley • Gender: Male • Source: Charles River (Hollister, Calif.) • Number of Animals: 3 per study • Body Weight Range: 230-280 g at the start of the study
After acclimation, rats (n=3) were administered single 20 mg/kg intravenous infusion doses of Compound I or Biapenem alone or in combination. Doses were infused over 1.5 hours via an indwelling femoral vein cannula. Plasma (˜0.3 mL) samples were collected from each rat at designated time points up to 24 hours. The time points are shown in section 2.9. Blood samples were centrifuged within 5 min of collection at 12000 g for 5 min to obtain plasma. The plasma samples were stored on −80° C. until analyzed.
Compound I standard curves were prepared in rat plasma from 0.1 to 100 μg/mL. 50 μl aliquots of sample were placed in 1.5 mL microcentrifuge tubes. 20 μl of Compound II (10 μg/mL) was added as internal standard to each sample or standard. 20 μl of 30% trichloroacetic acid was then added to each sample or standard. The samples were mixed using a vortex mixer centrifuged for 10 min at 15,000 RPM using a tabletop centrifuge. The supernatant (approx. 120 μl) was removed and added to 100 μl of water in a 96-well plate. The samples were mixed again using a vortex mixer. 10 μl of each sample was injected onto an HPLC-MS for quantification.
The HPLC-MS conditions for Compound I analysis are as follows: • Column: Phenomenex Fusion-RP or equivalent reversed-phase column, 5 um, 50×2 mm. • Flow rate: 0.6 mL/min. • Mobile phase A: 0.1% formic acid in water. • Mobile phase B: 0.1% formic acid in acetonitrile. • Gradient: 5-60% B in 1.5 min. • Mass spectrometer: Negative ion mode with electrospray ionization. • MS/MS: Compound I-Q1-m/e=296, Q3-m/e=234. • Compound II-Q1-m/e=331, Q3-m/e=201.
Biapenem standard curves were prepared in 50% plasma-50% 1M MOPS buffer, pH=7.4 from 1 to 250 ug/mL. 20 uL of sample or standard was added into a 96-well deep well plate. Then 500 uL of 10% water-45% methanol-45% acetonitrile containing 2 ug/mL of meropenem was used as an internal standard. The plate was vortexed for 15 min. at 3,000 RPM. 50 uL of supernatant was removed and added 300 uL of water. 10 uL of samples were injected onto an HPLC-MS system for quantification.
The HPLC-MS conditions for Biaphenem analysis are as follows: • Column: Supelco Discovery HS F5 or equivalent pentafluorophenyl column, 5 um, 50×2.1 mm. • Flow rate: 0.6 mL/min. • Mobile phase A: 0.1% formic acid in water. • Mobile phase B: 0.1% formic acid in acetonitrile. • Gradient: 5-70% B in 1.9 min. • Mass spectrometer: Positive ion mode with electrospray ionization. • MS/MS: Biapenem-Q1-m/e=350.8, Q3-m/e=110.1. • meropenem-Q1-m/e=384.1, Q3-m/e=141.1
Plasma concentrations were fit using a two compartment IV infusion model (WinNonlinVersion 5.3, Pharsight Corp, Mountain View, Calif.).

[2] = Sprague-Dawley rats, 20 mg/kg Compound I in combination with 20 mg/kg Biapenem
[3] = Sprague-Dawley rats, administered alone

C[C@@H](O)[C@H]1C(=O)N2C(C(=O)[O-])=C(SC3Cn4cnc[n+]4C3)[C@H](C)[C@H]12 (stereo partly shown) [Biapenem]
MIC (K. pneumoniae strains; ATCC43816, K. pneumoniae strain ATCC 43816, read-out: Biapenem MIC Alone): 0.25 µg/mL (≈ 0.713 µM)
MIC (K. pneumoniae strains; ATCC43816, K. pneumoniae strain ATCC 43816, with Compound I 5 μg/mL, read-out: Biapenem MIC with Compound I (5 μg/mL)): 0.25 µg/mL (≈ 0.713 µM)
MIC (K. pneumoniae strains; K. pneumoniae strain KP1004, read-out: Biapenem MIC Alone): 16 µg/mL (≈ 45.7 µM)
MIC (K. pneumoniae strains; K. pneumoniae strain KP1004, with Compound I 5 μg/mL, read-out: Biapenem MIC with Compound I (5 μg/mL)): ≤ 0.06 µg/mL
MIC (K. pneumoniae strains; K. pneumoniae strain KP1061, read-out: Biapenem MIC Alone): 32 µg/mL (≈ 91.3 µM)
MIC (K. pneumoniae strains; K. pneumoniae strain KP1061, with Compound I 5 μg/mL, read-out: Biapenem MIC with Compound I (5 μg/mL)): ≤ 0.06 µg/mL
MIC (K. pneumoniae strains; K. pneumoniae strain KP1074, read-out: Biapenem MIC Alone): 64 µg/mL (≈ 183 µM)
MIC (K. pneumoniae strains; K. pneumoniae strain KP1074, with Compound I 5 μg/mL, read-out: Biapenem MIC with Compound I (5 μg/mL)): 0.25 µg/mL (≈ 0.713 µM)
MIC (K. pneumoniae strains; four K. pneumoniae strains used in the infection models, read-out: Biapenem MICs): 0.25 to 64 µg/mL (≈ 0.713 to 183 µM)
Potency against P. aeruginosa (P. aeruginosa): potency similar to meropenem
Plasma pharmacokinetic parameters, alone versus in combination ([1]; Sprague-Dawley rats, single intravenous infusion): unchanged
AUC [1, 2]: 10100 ± 1130 ng·h/mL
clearance [1, 2]: 33.8 mL/min/kg
half-life [1, 2]: 13.2 ± 0.6 min
AUC [1, 3]: 8950 ± 890 ng·h/mL
clearance [1, 3]: 38.2 mL/min/kg
half-life [1, 3]: 12.6 ± 0.6 min
Biapenem Calc. Conc. in plasma ([1]; sample r.p. # 7.10 (first line), 20 mg/kg Compound I in combination with 20 mg/kg Biapenem): 0.100 µg/mL
Biapenem Calc. Conc. in plasma ([1]; sample r.p. # 7.10 (second line), 20 mg/kg Compound I in combination with 20 mg/kg Biapenem): <0 µg/mL
Biapenem Calc. Conc. in plasma ([1]; sample r.p. # 7.1, 20 mg/kg Compound I in combination with 20 mg/kg Biapenem): 5.61 µg/mL
Biapenem Calc. Conc. in plasma ([1]; sample r.p. # 7.2, 20 mg/kg Compound I in combination with 20 mg/kg Biapenem): 7.98 µg/mL
Biapenem Calc. Conc. in plasma ([1]; sample r.p. # 7.3, 20 mg/kg Compound I in combination with 20 mg/kg Biapenem): 5.08 µg/mL
Biapenem Calc. Conc. in plasma ([1]; sample r.p. # 7.4, 20 mg/kg Compound I in combination with 20 mg/kg Biapenem): 6.47 µg/mL
Biapenem Calc. Conc. in plasma ([1]; sample r.p. # 7.5, 20 mg/kg Compound I in combination with 20 mg/kg Biapenem): 3.03 µg/mL
Biapenem Calc. Conc. in plasma ([1]; sample r.p. # 7.6, 20 mg/kg Compound I in combination with 20 mg/kg Biapenem): 1.89 µg/mL
Biapenem Calc. Conc. in plasma ([1]; sample r.p. # 7.7, 20 mg/kg Compound I in combination with 20 mg/kg Biapenem): 1.22 µg/mL
Biapenem Calc. Conc. in plasma ([1]; sample r.p. # 7.8, 20 mg/kg Compound I in combination with 20 mg/kg Biapenem): 0.103 µg/mL
Biapenem Calc. Conc. in plasma ([1]; sample r.p. # 7.9, 20 mg/kg Compound I in combination with 20 mg/kg Biapenem): 0.0321 µg/mL
Biapenem Calc. Conc. in plasma ([1]; sample r.p. # 8.10 (first line), 20 mg/kg Compound I in combination with 20 mg/kg Biapenem): 0.0587 µg/mL
Biapenem Calc. Conc. in plasma ([1]; sample r.p. # 8.10 (second line), 20 mg/kg Compound I in combination with 20 mg/kg Biapenem): No Peak
Biapenem Calc. Conc. in plasma ([1]; sample r.p. # 8.1, 20 mg/kg Compound I in combination with 20 mg/kg Biapenem): 4.40 µg/mL
Biapenem Calc. Conc. in plasma ([1]; sample r.p. # 8.2, 20 mg/kg Compound I in combination with 20 mg/kg Biapenem): 5.21 µg/mL
Biapenem Calc. Conc. in plasma ([1]; sample r.p. # 8.3, 20 mg/kg Compound I in combination with 20 mg/kg Biapenem): 7.28 µg/mL
Biapenem Calc. Conc. in plasma ([1]; sample r.p. # 8.4, 20 mg/kg Compound I in combination with 20 mg/kg Biapenem): 2.71 µg/mL
Biapenem Calc. Conc. in plasma ([1]; sample r.p. # 8.5, 20 mg/kg Compound I in combination with 20 mg/kg Biapenem): 1.87 µg/mL
Biapenem Calc. Conc. in plasma ([1]; sample r.p. # 8.6, 20 mg/kg Compound I in combination with 20 mg/kg Biapenem): 1.52 µg/mL
Biapenem Calc. Conc. in plasma ([1]; sample r.p. # 8.7, 20 mg/kg Compound I in combination with 20 mg/kg Biapenem): 0.828 µg/mL
Biapenem Calc. Conc. in plasma ([1]; sample r.p. # 8.8, 20 mg/kg Compound I in combination with 20 mg/kg Biapenem): 0.0353 µg/mL
Biapenem Calc. Conc. in plasma ([1]; sample r.p. # 8.9, 20 mg/kg Compound I in combination with 20 mg/kg Biapenem): 0.0393 µg/mL
Biapenem Calc. Conc. in plasma ([1]; sample r.p. # 9.10 (first line), 20 mg/kg Compound I in combination with 20 mg/kg Biapenem): 0.196 µg/mL
Biapenem Calc. Conc. in plasma ([1]; sample r.p. # 9.10 (second line), 20 mg/kg Compound I in combination with 20 mg/kg Biapenem): <0 µg/mL
Biapenem Calc. Conc. in plasma ([1]; sample r.p. # 9.1, 20 mg/kg Compound I in combination with 20 mg/kg Biapenem): 3.86 µg/mL
Biapenem Calc. Conc. in plasma ([1]; sample r.p. # 9.2, 20 mg/kg Compound I in combination with 20 mg/kg Biapenem): 7.34 µg/mL
Biapenem Calc. Conc. in plasma ([1]; sample r.p. # 9.3, 20 mg/kg Compound I in combination with 20 mg/kg Biapenem): 9.20 µg/mL
Biapenem Calc. Conc. in plasma ([1]; sample r.p. # 9.5, 20 mg/kg Compound I in combination with 20 mg/kg Biapenem): 4.90 µg/mL
Biapenem Calc. Conc. in plasma ([1]; sample r.p. # 9.6, 20 mg/kg Compound I in combination with 20 mg/kg Biapenem): 2.16 µg/mL
Biapenem Calc. Conc. in plasma ([1]; sample r.p. # 9.7, 20 mg/kg Compound I in combination with 20 mg/kg Biapenem): 1.69 µg/mL
Biapenem Calc. Conc. in plasma ([1]; sample r.p. # 9.8, 20 mg/kg Compound I in combination with 20 mg/kg Biapenem): 0.0705 µg/mL
Biapenem Calc. Conc. in plasma ([1]; sample r.p. # 9.9, 20 mg/kg Compound I in combination with 20 mg/kg Biapenem): 0.00349 µg/mL
